These are literature values, as cited in US11498743B2, “Cardboard container for active packaging of fresh fruit and vegetables and production method of same” (Universidad Politecnica de Cartagena, priority 2016, dated 2022).

SMILES strings stand for the structures.

For the compound `OC[C@H]1O[C@@H]2O[C@H]3[C@H](O)[C@@H](O)[C@@H](O[C@H]4[C@H](O)[C@@H](O)[C@@H](O[C@H]5[C@H](O)[C@@H](O)[C@@H](O[C@H]6[C@H](O)[C@@H](O)[C@@H](O[C@H]7[C@H](O)[C@@H](O)[C@@H](O[C@H]8[C@H](O)[C@@H](O)[C@@H](O[C@H]1[C@H](O)[C@H]2O)O[C@@H]8CO)O[C@@H]7CO)O[C@@H]6CO)O[C@@H]5CO)O[C@@H]4CO)O[C@@H]3CO` [β-CD, beta-cyclodextrin], the “Half-life in 1M HCl at 60° C.” value is reported as 5.4 h.

`OC[C@H]1O[C@@H]2O[C@H]3[C@H](O)[C@@H](O)[C@@H](O[C@H]4[C@H](O)[C@@H](O)[C@@H](O[C@H]5[C@H](O)[C@@H](O)[C@@H](O[C@H]6[C@H](O)[C@@H](O)[C@@H](O[C@H]7[C@H](O)[C@@H](O)[C@@H](O[C@H]1[C@H](O)[C@H]2O)O[C@@H]7CO)O[C@@H]6CO)O[C@@H]5CO)O[C@@H]4CO)O[C@@H]3CO` [α-CD, alpha-cyclodextrin]: the “Half-life in 1M HCl at 60° C.” value is listed as 6.2 h.

As for `OC[C@H]1O[C@@H]2O[C@H]3[C@H](O)[C@@H](O)[C@@H](O[C@H]4[C@H](O)[C@@H](O)[C@@H](O[C@H]5[C@H](O)[C@@H](O)[C@@H](O[C@H]6[C@H](O)[C@@H](O)[C@@H](O[C@H]7[C@H](O)[C@@H](O)[C@@H](O[C@H]8[C@H](O)[C@@H](O)[C@@H](O[C@H]9[C@H](O)[C@@H](O)[C@@H](O[C@H]1[C@H](O)[C@H]2O)O[C@@H]9CO)O[C@@H]8CO)O[C@@H]7CO)O[C@@H]6CO)O[C@@H]5CO)O[C@@H]4CO)O[C@@H]3CO` [γ-CD, gamma-cyclodextrin], the “Half-life in 1M HCl at 60° C.” value is on record as 3.0 h.
